From ChEMBL document CHEMBL1201862, “PubChem BioAssay data set” (2004)
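Compound exposure: 48 hours, 5 concentrations, 96-well plates. GI50: concentration for 50% inhibition of growth.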 Activity calls are given as the source filed them. Cut-off read from the data, not from the text of the source: active = GI50 up to about 1.1 µM and inactive = higher.

How the values were obtained:
Experiment in all cases: DTP human tumour cell line panel, 48 h
HOP-62 = system: HOP-62
SK-MEL-5 = system: SK-MEL-5
T47D = system: T47D
OVCAR-3 = system: OVCAR-3
IGROV-1 = system: IGROV-1
MDA-MB-435 = system: MDA-MB-435
LOX IMVI = system: LOX IMVI
SW-620 = system: SW-620
OVCAR-5 = system: OVCAR-5
EKVX = system: EKVX
MDA-N = system: MDA-N
TK-10 = system: TK-10
KM12 = system: KM12
MOLT-4 = system: MOLT-4
HT-29 = system: HT-29
SN12C = system: SN12C
UACC-62 = system: UACC-62
SF-539 = system: SF-539
NCI-H522 = system: NCI-H522
CAKI-1 = system: CAKI-1
K562 = system: K562
HCT-15 = system: HCT-15
HL-60 = system: HL-60
HCC 2998 = system: HCC 2998
RPMI-8226 = system: RPMI-8226
CCRF-CEM = system: CCRF-CEM
OVCAR-8 = system: OVCAR-8
Malme-3M = system: Malme-3M
A549 = system: A549
COLO 205 = system: COLO 205
SR = system: SR
ACHN = system: ACHN
786-0 = system: 786-0
RXF 393 = system: RXF 393
SF-268 = system: SF-268
MDA-MB-231 = system: MDA-MB-231
SK-MEL-2 = system: SK-MEL-2
NCI-H460 = system: NCI-H460
SNB-75 = system: SNB-75
UO-31 = system: UO-31
NCI-H23 = system: NCI-H23
U-251 = system: U-251
NCI/ADR-RES = system: NCI/ADR-RES
SF-295 = system: SF-295
NCI-H226 = system: NCI-H226
DU-145 = system: DU-145
OVCAR-4 = system: OVCAR-4
BT-549 = system: BT-549
A498 = system: A498
SNB-19 = system: SNB-19
UACC-257 = system: UACC-257
PC-3 = system: PC-3
SK-OV-3 = system: SK-OV-3
SK-MEL-28 = system: SK-MEL-28
HCT-116 = system: HCT-116
HOP-92 = system: HOP-92
M14 = system: M14
MCF7 = system: MCF7
Hs-578T = system: Hs-578T

Measured: GI50

COC(=O)c1cc2ccc(O)c(O)c2cn1
inactive: HOP-62 20.6 µM | SK-MEL-5 14.2 µM | T47D > 10 µM | OVCAR-3 17.1 µM | IGROV-1 17.5 µM | MDA-MB-435 1.73 µM | LOX IMVI 1.96 µM | SW-620 16.6 µM | OVCAR-5 19.5 µM | EKVX 21.4 µM | MDA-N 1.52 µM | TK-10 20 µM | KM12 18.1 µM | MOLT-4 3.44 µM | HT-29 > 10 µM | SN12C 9.1 µM | UACC-62 2.41 µM | SF-539 18.7 µM | NCI-H522 21.6 µM | CAKI-1 13 µM | K562 2.42 µM | HL-60 3.36 µM | HCC 2998 > 10 µM | RPMI-8226 17.1 µM | CCRF-CEM 1.92 µM | OVCAR-8 13.9 µM | Malme-3M 14.4 µM | A549 23.6 µM | COLO 205 18.9 µM | SR 4.25 µM | ACHN 19.1 µM | 786-0 2.7 µM | RXF 393 18 µM | SF-268 17.1 µM | MDA-MB-231 10.9 µM | SK-MEL-2 18.1 µM | NCI-H460 19 µM | SNB-75 21.5 µM | UO-31 18.3 µM | NCI-H23 15.7 µM | U-251 8.55 µM | NCI/ADR-RES 7.59 µM | SF-295 18.2 µM | NCI-H226 18.2 µM | DU-145 67.8 µM | OVCAR-4 10.1 µM | BT-549 > 10 µM | A498 > 10 µM | SNB-19 > 10 µM | UACC-257 15.4 µM | PC-3 24.9 µM | SK-OV-3 27.5 µM | SK-MEL-28 20.4 µM | HCT-116 15.7 µM | HOP-92 12.6 µM | M14 18.5 µM | MCF7 3.56 µM
20.3 µM: HCT-15

c1ccc2c(c1)ccn1ccc3c4ccccc4nc-3c21
0.305 µM: HCT-15
active: HOP-62 0.411 µM | SK-MEL-5 0.454 µM | T47D 0.71 µM | OVCAR-3 0.918 µM | IGROV-1 0.394 µM | MDA-MB-435 0.362 µM | LOX IMVI 0.366 µM | SW-620 0.202 µM | OVCAR-5 0.475 µM | EKVX 0.214 µM | KM12 0.346 µM | MOLT-4 0.0759 µM | HT-29 0.11 µM | SN12C 0.285 µM | SF-539 0.369 µM | NCI-H522 0.3 µM | CAKI-1 0.417 µM | K562 0.194 µM | HL-60 0.297 µM | HCC 2998 0.191 µM | RPMI-8226 0.195 µM | CCRF-CEM 0.26 µM | OVCAR-8 0.182 µM | Malme-3M 0.644 µM | A549 0.32 µM | COLO 205 0.222 µM | SR < 0.01 µM | ACHN 0.228 µM | 786-0 0.178 µM | RXF 393 0.439 µM | SF-268 0.536 µM | MDA-MB-231 0.322 µM | NCI-H460 0.262 µM | SNB-75 0.647 µM | UO-31 0.34 µM | NCI-H23 0.289 µM | U-251 0.299 µM | NCI/ADR-RES 0.33 µM | SF-295 0.426 µM | NCI-H226 0.31 µM | DU-145 0.351 µM | OVCAR-4 0.332 µM | A498 0.0527 µM | SNB-19 0.776 µM | UACC-257 1.06 µM | PC-3 0.384 µM | SK-OV-3 0.566 µM | SK-MEL-28 0.368 µM | HCT-116 0.0935 µM | M14 0.38 µM | MCF7 0.229 µM
inactive: Hs-578T 1.23 µM | TK-10 1.16 µM | UACC-62 1.16 µM | SK-MEL-2 1.17 µM | BT-549 1.43 µM | HOP-92 1.41 µM
